Structures can show the parent of a compound that is named as a salt. Where two headings read alike, the source gives them in different places.
Columns and labels:
[1] = molecular target: DNMT1 (Homo sapiens, UniProt P26358); experiment: DNMT1 biochemical activity, breaklight assay and/or SPA assay
[2] = test system: erythroid progenitor cells (EPCs); experiment: Fetal hemoglobin (HbF) ELISA in day 7 erythroid progenitor cells; assay type: cell-based, human; conditions: Homo sapiens, Erythroid progenitor cell, read-out: EPC ELISA (pEC50 category) (converted);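 for EPC ELISA (pEC50 category): for fetal hemoglobin induction normalized to vehicle-treated cells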
Procedure, shortened: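 CD34+-derived EPCs, 1,000 cells/well, rhEPO 3 U/mL; Compound A 22-pt series, […]; 5 d, 37° C, 5% CO2. Freeze-thaw lysis, anti-HbF capture + HRP anti-HbF, TMB, OD450. Normalized to DMSO wells.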

[3] = binned activity in either the breaklight or the SPA assay, read-out: DNMT1 BioChemical (pIC50 category) (converted)
[4] = binned activity in either the breaklight or the SPA assay

Sequence of DNMT1 (P26358 whole entry, looked up): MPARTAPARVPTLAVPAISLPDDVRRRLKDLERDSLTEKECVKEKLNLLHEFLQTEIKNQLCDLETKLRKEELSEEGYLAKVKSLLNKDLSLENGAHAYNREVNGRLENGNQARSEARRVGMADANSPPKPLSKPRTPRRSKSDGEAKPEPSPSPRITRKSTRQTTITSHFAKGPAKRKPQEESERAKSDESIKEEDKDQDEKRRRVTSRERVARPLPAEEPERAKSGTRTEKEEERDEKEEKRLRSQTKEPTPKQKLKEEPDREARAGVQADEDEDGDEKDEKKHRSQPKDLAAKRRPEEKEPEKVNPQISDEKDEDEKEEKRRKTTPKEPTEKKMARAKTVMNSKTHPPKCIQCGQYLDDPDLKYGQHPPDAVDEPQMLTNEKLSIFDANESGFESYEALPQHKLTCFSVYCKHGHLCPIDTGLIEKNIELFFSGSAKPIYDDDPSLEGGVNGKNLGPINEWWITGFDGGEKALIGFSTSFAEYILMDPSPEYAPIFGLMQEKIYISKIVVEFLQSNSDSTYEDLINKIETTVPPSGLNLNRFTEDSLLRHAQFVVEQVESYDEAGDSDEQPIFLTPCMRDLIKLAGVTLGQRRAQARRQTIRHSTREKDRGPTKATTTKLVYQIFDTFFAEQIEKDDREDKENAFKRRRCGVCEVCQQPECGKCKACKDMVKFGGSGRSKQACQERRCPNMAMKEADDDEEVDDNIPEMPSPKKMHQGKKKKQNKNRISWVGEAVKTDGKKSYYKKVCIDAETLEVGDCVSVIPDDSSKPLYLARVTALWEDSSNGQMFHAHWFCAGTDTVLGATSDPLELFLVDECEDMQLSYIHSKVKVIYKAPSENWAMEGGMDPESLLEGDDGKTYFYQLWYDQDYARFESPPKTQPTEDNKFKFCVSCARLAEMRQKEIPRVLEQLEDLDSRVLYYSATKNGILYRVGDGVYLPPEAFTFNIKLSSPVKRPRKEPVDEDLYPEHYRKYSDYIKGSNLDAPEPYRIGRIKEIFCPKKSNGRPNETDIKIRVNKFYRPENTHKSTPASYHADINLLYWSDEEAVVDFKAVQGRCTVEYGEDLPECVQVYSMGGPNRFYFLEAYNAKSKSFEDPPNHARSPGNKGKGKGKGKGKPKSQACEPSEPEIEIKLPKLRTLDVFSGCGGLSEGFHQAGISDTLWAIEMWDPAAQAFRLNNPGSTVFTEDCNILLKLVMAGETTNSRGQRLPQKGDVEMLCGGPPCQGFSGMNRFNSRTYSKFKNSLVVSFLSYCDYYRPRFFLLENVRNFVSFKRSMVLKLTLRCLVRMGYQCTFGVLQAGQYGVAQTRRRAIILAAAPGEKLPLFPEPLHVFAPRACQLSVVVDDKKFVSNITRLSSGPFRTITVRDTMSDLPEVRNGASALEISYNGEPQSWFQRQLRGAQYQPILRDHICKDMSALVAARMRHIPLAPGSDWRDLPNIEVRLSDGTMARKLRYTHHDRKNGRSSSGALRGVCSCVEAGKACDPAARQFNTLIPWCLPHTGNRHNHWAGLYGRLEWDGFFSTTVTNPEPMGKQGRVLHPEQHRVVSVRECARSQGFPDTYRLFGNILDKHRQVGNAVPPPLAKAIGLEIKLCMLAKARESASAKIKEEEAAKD

SMILES | IC50 [1, 3] [µM] | EC50 ([2]; HbF ELISA, day 7 EPCs, 5 days) [µM] | DNMT1 BioChemical (pIC50 category) [1, 4] | other results
N#Cc1c(SC(C(N)=O)c2ccccc2)nc(N2CC(O)C2)c(C#N)c1C1CC1 (stereo not drawn) [Example 387, 2-((3,5-Dicyano-4-cyclopropyl-6-(13-hydroxyazetidin-1-yl)pyridin-2-yl)thio)-2-phenylacetamide] |  | 1 to 31.6 | D (Category D: ≥6.5) | 
CCc1c(C#N)c(SCc2ccc3[nH]cnc3c2)nc(N2CCCN(C)CC2)c1C#N [Example 390, 2-(((1H-Benzo[d]imidazol-5-yl)methyl)thio)-4-ethyl-6-(4-methyl-1,4-diazepan-1-yl)pyridine-3,5-dicarbonitrile] | 0.316 to 1 | 0.316 to 1 |  | 
CN(CCCN)c1nc(SC(C(N)=O)c2ccccc2)c(C#N)c(C2CC2)c1C#N (stereo not drawn) [Example 391, 2-((6-((3-Aminopropyl) (methyl)amino-3,5-dicyano-4-cyclopropylpyridin-2-yl)thio-2-phenylacetamide, Hydrochloride] |  | 1 to 31.6 | D (Category D: ≥6.5) | 
CN(CC(=O)N1CC(O)C1)c1nc(SC(C(N)=O)c2ccccc2)c(C#N)c(C2CC2)c1C#N (stereo not drawn) [Example 392, 2-((3,5-Dicyano-4-cyclopropyl-6-((2-(3-hydroxyazetidin-1-yl)-2-oxoethyl) (methyl)amino)pyridin-2-yl)thio)-2-phenylacetamide] |  | 0.316 to 1 | D (Category D: ≥6.5) | 
CN(CCOC(N)=O)c1nc(SC(C(N)=O)c2ccccc2)c(C#N)c(C2CC2)c1C#N (stereo not drawn) [Example 397, 2-((6-((2-Amino-2-oxo-1-phenylethyl)thio-3,5-dicyano-4-cyclopropylpyridin-2-yl)methyl)amino)ethyl carbamate] | 0.316 to 1 | 1 to 31.6 |  | 
CCc1c(C#N)c(SC(C(N)=O)c2ccccc2)nc(N2CCC(NC(=O)[C@H](N)CO)CC2)c1C#N (stereo partly drawn) [Example 398, (2R)-2-Amino-N-(1-(6-((2-amino-2-oxo-1-phenylethyl)thio)-3,5-dicyano-4-ethylpyridin-2-yl)piperidin-4-yl)-3-hydroxypropanamide] |  | 1 to 31.6 | D (Category D: ≥6.5) | 
CCc1c(C#N)c(SC(C(N)=O)c2ccccc2)nc(N2CCC(NC(=O)[C@@H](N)CO)CC2)c1C#N (stereo partly drawn) [Example 399] |  | 1 to 31.6 | D (Category D: ≥6.5) | 
CCc1c(C#N)c(SCc2ccc(CS(C)(=O)=O)cc2)nc(N2CCCN(C)CC2)c1C#N [Example 403, 4-Ethyl-2-(4-methyl-1,4-diazepan-1-yl)-6-(4-(methylsulfonylmethyl)benzylthio)pyridine-3,5-dicarbonitrile] | 0.316 to 1 | 0.316 to 1 |  | 
CCc1c(C#N)c(S[C@@H](C(N)=O)c2ccccc2)nc(N2CCC(N3CCCC3)CC2)c1C#N [Example 405, (R)-2-((3,5-Dicyano-4-ethyl-6-(4-(pyrrolidin-1-yl)piperidin-1-yl)pyridin-2-yl)thio)-2-phenylacetamide] |  | < 0.316 | D (Category D: ≥6.5) | 
CCc1c(C#N)c(SC(C(N)=O)c2ccccc2)nc(N2CCC(N3CCCC3)CC2)c1C#N (stereo not drawn) [Example 411, 2-((3,5-Dicyano-4-ethyl-6-(4-(pyrrolidin-1-yl)piperidin-1-yl)pyridin-2-yl)thio)-2-phenylacetamide] |  | < 0.316 | D (Category D: ≥6.5) | 
CC(=O)NCc1ccc(CSc2nc(N3CCCN(C)CC3)c(C#N)c(-c3ccco3)c2C#N)cc1 [Example 414] | 0.316 to 1 | 1 to 31.6 |  | 
CCc1c(C#N)c(SC(C(N)=O)c2ccccc2)nc(N2CC[C@H](OP(=O)(O)O)C2)c1C#N (stereo partly drawn) [Example 415, (3S)-1-(6-((2-amino-2-oxo-1-phenylethyl)thio-3,5-dicyano-4-ethylpyridin-2-yl) Pyrrolidin-3-yldihydrogen phosphate] | 1 to 31.6 |  |  | EC50 [2]: 1 to 31.6 µM

Second part, led by results:

IC50 [1, 3] [µM] | EC50 ([2]; HbF ELISA, day 7 EPCs, 5 days) [µM] | DNMT1 BioChemical (pIC50 category) [1, 4] | SMILES | other results
0.316 to 1 | 1 to 31.6 |  | CN(CCO)c1nc(SC(C(N)=O)c2ccccc2)c(C#N)c(C2CC2)c1C#N (stereo not drawn) [Example 386, 2-((3,5-Dicyano-4-cyclopropyl-6-((2-hydroxyethyl)(methyl)amino)pyridin-2-yl)thio)-2-phenylacetamide] | 
0.316 to 1 | 1 to 31.6 |  | CCc1c(C#N)c(SC(C(N)=O)c2ccccc2)nc(N2CCC(C(N)=O)C2)c1C#N (stereo not drawn) [Example 388, 1-(6-((2-Amino-2-oxo-1-phenylethyl)thio)-3,5-dicyano-4-ethylpyridin-2-yl)pyrrolidine-3-carboxamide] | 
 | 0.316 to 1 | D (Category D: ≥6.5) | CCc1c(C#N)c(SC(C(N)=O)c2ccccc2)nc(N2CCC(NCC(N)=O)CC2)c1C#N (stereo not drawn) [Example 393, 2-((6-(4-((2-Amino-2-oxoethyl)amino)piperidin-1-yl)-3,5-dicyano-4-ethylpyridin-2-yl)thio)-2-phenylacetamide] | 
0.316 to 1 | 1 to 31.6 |  | CN(CC(N)=O)c1nc(SC(C(N)=O)c2ccccc2)c(C#N)c(C2CC2)c1C#N (stereo not drawn) [Example 396, 2-((6-((2-Amino-2-oxoethyl)(methyl)amino)-3,5-dicyano-4-cyclopropylpyridin-2-yl)thio)-2-phenylacetamide] | 
 | 1 to 31.6 | D (Category D: ≥6.5) | CCc1c(C#N)c(SC(C(N)=O)c2ccc(CC(N)=O)cc2)nc(N2CCCN(C)CC2)c1C#N (stereo not drawn) [Example 400, 2-(4-(2-Amino-2-oxoethyl)phenyl)-2-(3,5-dicyano-4-ethyl-6-(4-methyl-1,4-diazepan-1-yl)pyridin-2-ylthio)acetamide] | 
 | 1 to 31.6 | D (Category D: ≥6.5) | CCc1c(C#N)c(SC(C(N)=O)c2ccc(CC(N)=O)cc2)nc(N(C)C)c1C#N (stereo not drawn) [Example 401, 2-(4-(2-Amino-2-oxoethyl)phenyl)-2-(3,5-dicyano-6-(dimethylamino)-4-ethylpyridin-2-ylthio)acetamide] | 
 | 1 to 31.6 | D (Category D: ≥6.5) | CCc1c(C#N)c(SC(C(N)=O)c2ccc(S(=O)(=O)NC)cc2)nc(N(C)C)c1C#N (stereo not drawn) [Example 402] | 
 | < 0.316 | D (Category D: ≥6.5) | CCc1c(C#N)c(S[C@@H](C(N)=O)c2ccccc2)nc(N2CCC(N(C)C)CC2)c1C#N [Example 406, (R)-2-((3,5-Dicyano-6-(4-(dimethylamino)piperidin-1-yl)-4-ethylpyridin-2-yl)thio)-2-phenylacetamide] | 
 | 1 to 31.6 | D (Category D: ≥6.5) | CCc1c(C#N)c(SC(C(N)=O)c2cccc(OCCN(C)C)c2)nc(N(C)C)c1C#N (stereo not drawn) [Example 407, 2-(3,5-dicyano-6-(dimethylamino)-4-ethylpyridin-2-ylthio)-2-(3-(2-(dimethylamino)ethoxy)phenyl)acetamide] | 
 | < 0.316 | D (Category D: ≥6.5) | CCc1c(C#N)c(SC(C(N)=O)c2ccc(F)cc2)nc(N2CCC(NCC(C)(C)C)CC2)c1C#N (stereo not drawn) [Example 408, 2-((3,5-Dicyano-4-ethyl-6-(4-(neopentylamino)piperidin-1-yl)pyridin-2-yl)thio)-2-(4-fluorophenyl)acetamide] | 
 | < 0.316 | D (Category D: ≥6.5) | CCc1c(C#N)c(SC(C(N)=O)c2ccccc2)nc(N2CCC(NCC(C)(C)C)C(F)C2)c1C#N (stereo not drawn) [Example 409, 2-((3,5-dicyano-4-ethyl-6-(3-fluoro-4-A(neopentylamino)piperidin-1-yl)pyridin-2-yl)thio)-2-phenylacetamide] | average pIC50 against DNMT1 ([1]; breaklight assay and/or SPA assay, repeated experimental runs): > 6.5; IC50 ([1]; breaklight assay and/or SPA assay, repeated experimental runs, read-out: average pIC50 against DNMT1 (converted)): 0.158 µM
 | 0.316 to 1 | D (Category D: ≥6.5) | CCc1c(C#N)c(SC(C(N)=O)c2ccc(C(F)(F)F)cc2)nc(N2CCC(N)CC2)c1C#N (stereo not drawn) [Example 410, 2-((6-(4-aminopiperidin-1-yl)-3,5-dicyano-4-ethylpyridin-2-yl)thio)-2-(4-(trifluoromethyl)phenyl)acetamide] | 
1 to 31.6 | 1 to 31.6 |  | CCc1c(C#N)c(SC(C(N)=O)c2ccccc2)nc(N2CC[C@@H](OP(=O)(O)O)C2)c1C#N (stereo partly drawn) [Example 416, (3R)-1-(6-((2-amino-2-oxo-1-phenylethyl)thio)-3,5-dicyano-4-ethylpyridin-2-yl)pyrrolidin-3-yl dihydrogen phosphate] | 
 | > 31.6 | A (Category A: <4.5) | CCc1c(C#N)c(S[C@H](C(N)=O)c2ccccc2)nc(N2CC[C@H](OP(=O)(O)O)C2)c1C#N [Example 417, (S)-1-(6-(((S)-2-amino-2-oxo-1-phenylethyl)thio)-3,5-dicyano-4-ethylpyridin-2-yl)pyrrolidin-3-yl dihydroden phosphate] | 
1 to 31.6 | > 31.6 |  | CCc1c(C#N)c(S[C@@H](C(N)=O)c2ccccc2)nc(N2CC[C@H](OP(=O)(O)O)C2)c1C#N [Example 418, (S)-1-(6-(((R-2-amino-2-oxo-1-phenylethyl)thio-3,5-dicyano-4-ethylpyridin-2-yl)pyrrolidin-3-yldihydrogen phosphate] | 
0.316 to 1 | 1 to 31.6 |  | CCc1c(C#N)c(SC(C(N)=O)c2cccc(P(C)(C)=O)c2)nc(N(C)C)c1C#N (stereo not drawn) [Example 419, 2-((3,5-Dicyano-6-(dimethylamino)-4-ethylpyridin-2-yl)thio)-2-(3-(dimethylphosphoryl)phenyl)acetamide] | 
0.316 to 1 | 1 to 31.6 |  | CCc1c(C#N)c(SC(C(N)=O)c2cccc(P(C)(C)=O)c2)nc(N2CC[C@H](O)C2)c1C#N (stereo partly drawn) [Example 420, 2-((3,5-Dicyano-4-ethyl-6-((S)-3-hydroxypyrrolidin-1-yl)pyridin-2-yl)thio)-2-(3-(dimethylphosphoryl)phenyl)acetamide] | 
